Assay results as given in patent publication US20250002463A1, “NEW SALT FORMS OF AMILORIDE AND ITS DERIVATIVES FOR PHARMACEUTICAL USE” (PSOMRI Holding AB, priority 2021, published 2025).

Columns and labels:
[1] = Crystallinity of salt forms by HT-XRPD; type: physicochemical; conditions: salt screen solid forms
Experimental: The precipitated solids were analyzed by high throughput X-ray powder diffractometry (HT XRPD). Liquid phases (both solutions and mother liquors) were evaporated at ambient conditions and the residual solids were analyzed by HT XRPD.
XRPD patterns were obtained using the Ardena T2 high-throughput XRPD set-up. The plates were mounted on a Bruker General Area Detector Diffraction System (GADDS) equipped with a VÅNTEC-500 gas area detector corrected for intensity and geometric variations. The calibration of the measurement accuracy (peaks position) was performed using NIST SRM1976 standard (Corundum).
No background subtraction or curve smoothing was applied to the XRPD patterns.

[2] = Physical stability under Accelerated Aging Conditions (AAC, 40° C./75% RH, 2 days), HT-XRPD; conditions: for Physical Stability: AAC 40° C./75% RH, 2 days, re-analyzed by HT-XRPD; for physical stability upon exposure to AAC: Example 2; for physical stability upon exposure to AAC / Physically stable after AAC: 40° C./75% RH for 2 days; for Physically stable after AAC: Example 1
Experimental: The solids were separated from the liquid phases by centrifugation, dried overnight under vacuum at 50° C. and analyzed by HT-XRPD. Solvents from the remaining mother liquors and solutions were evaporated under ambient conditions (evaporative crystallization experiments) and the residual solids were analyzed by HT-XRPD.
Slurries of the amorphous solids (GEN9 and GEN16, respectively) were prepared in 15 solvents at room temperature. The suspensions were subjected to a temperature profile, which comprised of three heating and cooling cycles. At the end of the temperature profile, the solids were isolated by centrifugation and dried at ambient conditions and under vacuum at 50° C. Upon completion of all crystallization experiments, all solids were analyzed by HT-XRPD.

Compound | Crystallinity [1] | Physical Stability [2] | physical stability upon exposure to AAC [2] | Physically stable after AAC [2]
NC(=NC(=O)c1nc(Cl)c(N)nc1N)NCc1ccccc1.O=S(=O)(O)CCS(=O)(=O)O [EDY5] | Moderate | – | – | –
CCC(=O)O.NC(=NC(=O)c1nc(Cl)c(N)nc1N)NCc1ccccc1 [PRO4] | Obtained as mixture | Unstable | – | –
NC(=NCc1ccccc1)NC(=O)c1nc(Cl)c(N)nc1N.O=S(=O)(O)c1ccc2ccccc2c1 [NSA4] | Poor | Stable | physically stable | –
Cc1ccc(S(=O)(=O)O)cc1.N=C(NCc1ccccc1)NC(=O)c1nc(Cl)c(N)nc1N [TOS3] | – | – | – | physically stable
NC(=NC(=O)c1nc(Cl)c(N)nc1N)NCc1ccccc1.O=C(O)CNC(=O)c1ccccc1 [HIP2] | Poor | – | – | –
NC(=NCc1ccccc1)NC(=O)c1nc(Cl)c(N)nc1N.O=C(O)C=CC(=O)O [FUM1] | Good | Unstable | – | –
NC(=NCc1ccccc1)NC(=O)c1nc(Cl)c(N)nc1N.O=C(O)c1cc(=O)[nH]c(=O)[nH]1 [ORO2] | Good - poorly | Stable | physically stable | –
NC(=NC(=O)c1nc(Cl)c(N)nc1N)NCc1ccccc1.O=C(O)c1ccccc1O [SAL3] | Moderate | Unstable- | – | –
NC(=NC(=O)c1nc(Cl)c(N)nc1N)NCc1ccccc1.O=S(=O)(O)CCS(=O)(=O)O [EDY3] | Good | Stable | physically stable | –
NC(=NC(=O)c1nc(Cl)c(N)nc1N)NCc1ccccc1.O=S(=O)(O)CCS(=O)(=O)O [EDY2] | Good | Stable | physically stable | –
NC(=NC(=O)c1nc(Cl)c(N)nc1N)NCc1ccccc1.O=C(O)c1ccco1 [FUR1] | Good | Stable | physically stable | –
NC(=NC(=O)c1nc(Cl)c(N)nc1N)NCc1ccccc1.O=C(O)c1ccccc1O [SAL2] | Poor | – | – | –
NC(=NC(=O)c1nc(Cl)c(N)nc1N)NCc1ccccc1.O=C(O)c1cc2ccccc2c(Cc2c(O)c(C(=O)O)cc3ccccc23)c1O [PAM2] | Poor | Stable | physically stable | –
N=C(NCc1ccccc1)NC(=O)c1nc(Cl)c(N)nc1N.O=C(O)C=CC(=O)O [FUM2] | Good | Stable | physically stable | –
N=C(NCc1ccccc1)NC(=O)c1nc(Cl)c(N)nc1N.O=P(O)(O)O [PHO1] | – | – | – | physically unstable
NC(=NC(=O)c1nc(Cl)c(N)nc1N)NCc1ccccc1.O=CO [FOR5] | Good | – | – | –
NC(=NC(=O)c1nc(Cl)c(N)nc1N)NCc1ccccc1.O=C(O)C=CC(=O)O [MAE3] | Moderate | Stable | physically stable | –
NC(=NC(=O)c1nc(Cl)c(N)nc1N)NCc1ccccc1.O=[N+]([O-])O [NIT4] | – | – | – | physically unstable
NC(=NC(=O)c1nc(Cl)c(N)nc1N)NCc1ccccc1.NC(=NC(=O)c1nc(Cl)c(N)nc1N)NCc1ccccc1.O=S(=O)(O)CCS(=O)(=O)O [EDY4] | Good | Unstable | – | –
CCCC(=O)O.NC(=NC(=O)c1nc(Cl)c(N)nc1N)NCc1ccccc1 [BUT2] | Poor | Unstable | – | –
Br.NC(=NC(=O)c1nc(Cl)c(N)nc1N)NCc1ccccc1 [HBR6] | Good | – | – | –
NC(=NC(=O)c1nc(Cl)c(N)nc1N)NCc1ccccc1.O=C(O)CNC(=O)c1ccccc1 [HIP1] | Good | Unstable | – | –
NC(=NC(=O)c1nc(Cl)c(N)nc1N)NCc1ccccc1.O=C(O)c1cc(O)ccc1O [GEN3] | Moderate | Unstable | – | –
NC(=NC(=O)c1nc(Cl)c(N)nc1N)NCc1ccccc1.O=S(=O)(O)c1ccc2ccccc2c1 [NSA2] | Moderate | Stable | physically stable | –
Br.NC(=NC(=O)c1nc(Cl)c(N)nc1N)NCc1ccccc1 [HBR10] | Moderate | Unstable | – | –
CCS(=O)(=O)O.NC(=NC(=O)c1nc(Cl)c(N)nc1N)NCc1ccccc1 [ESY4] | Moderate | – | – | –

Compound | Crystallinity [1] | Physical Stability [2] | physical stability upon exposure to AAC [2] | Physically stable after AAC [2]
NC(=NC(=O)c1nc(Cl)c(N)nc1N)NCc1ccccc1.O=C(O)C=Cc1ccccc1 [CIN1] | Moderate | Stable | physically stable | –
CCCCCCCCCCCCCCCCCC(=O)O.NC(=NC(=O)c1nc(Cl)c(N)nc1N)NCc1ccccc1 [STE2] | Poor | Stable | physically stable | –
CS(=O)(=O)O.NC(=NC(=O)c1nc(Cl)c(N)nc1N)NCc1ccccc1 [MES3] | Moderate | – | – | –
Cl.Cl.N=C(NCc1ccccc1)NC(=O)c1nc(Cl)c(N)nc1N [Di-HCl1] | – | – | – | physically unstable
NC(=NCc1ccccc1)NC(=O)c1nc(Cl)c(N)nc1N.O=[N+]([O-])O [NIT2] | – | – | – | physically unstable
NC(=NC(=O)c1nc(Cl)c(N)nc1N)NCc1ccccc1.O=C(O)C=Cc1ccccc1 [CIN2] | Good | Stable | physically stable | –
NC(=NC(=O)c1nc(Cl)c(N)nc1N)NCc1ccccc1.O=C(O)c1cc2ccccc2c(Cc2c(O)c(C(=O)O)cc3ccccc23)c1O [PAM4] | Poor | – | – | –
Br.N=C(NCc1ccccc1)NC(=O)c1nc(Cl)c(N)nc1N [HBR7] | Good | – | – | –
NC(=NC(=O)c1nc(Cl)c(N)nc1N)NCc1ccccc1.O=C(O)CC(O)(CC(=O)O)C(=O)O [CIT1] | Moderate/Poor | Unstable | – | –
NC(=NC(=O)c1nc(Cl)c(N)nc1N)NCc1ccccc1.O=C(O)c1cc2ccccc2c(Cc2c(O)c(C(=O)O)cc3ccccc23)c1O [PAM1] | Obtained as mixture | Stable | physically stable | –
N=C(NCc1ccccc1)NC(=O)c1nc(Cl)c(N)nc1N.O=C(O)c1cc(O)ccc1O [GEN2] | Moderate | Stable | physically stable | –
N=C(NCc1ccccc1)NC(=O)c1nc(Cl)c(N)nc1N.O=S(=O)(O)c1ccccc1 [BES2] | Good | Unstable | – | –
N=C(NCc1ccccc1)NC(=O)c1nc(Cl)c(N)nc1N.O=C(O)c1cc(=O)[nH]c(=O)[nH]1 [ORO1] | Good | Stable | physically stable | –
Br.N=C(NCc1ccccc1)NC(=O)c1nc(Cl)c(N)nc1N [HBR8] | Good | – | – | –
NC(=NC(=O)c1nc(Cl)c(N)nc1N)NCc1ccccc1.O=CO [FOR4] | Good | – | – | –
CCS(=O)(=O)O.NC(=NC(=O)c1nc(Cl)c(N)nc1N)NCc1ccccc1 [ESY3] | Poor | Unstable | – | –
NC(=NC(=O)c1nc(Cl)c(N)nc1N)NCc1ccccc1.O=C(O)CC(O)(CC(=O)O)C(=O)O [CIT2] | Good | – | – | –
N=C(NCc1ccccc1)NC(=O)c1nc(Cl)c(N)nc1N.O=CO [FOR1] | Good | – | – | –
NC(=NC(=O)c1nc(Cl)c(N)nc1N)NCc1ccccc1.O=C(O)c1ccco1 [FUR2] | Good | – | – | –
NC(=NC(=O)c1nc(Cl)c(N)nc1N)NCc1ccccc1.O=S(=O)(O)O [SUL2] | – | – | – | physically unstable
CCC(=O)O.NC(=NC(=O)c1nc(Cl)c(N)nc1N)NCc1ccccc1 [PRO5] | Moderate | – | – | –
N=C(NCc1ccccc1)NC(=O)c1nc(Cl)c(N)nc1N.O=[N+]([O-])O [NIT1] | – | – | – | physically unstable
CCCCC(=O)O.NC(=NC(=O)c1nc(Cl)c(N)nc1N)NCc1ccccc1 [VAL2] | Poor | – | – | –
N=C(NCc1ccccc1)NC(=O)c1nc(Cl)c(N)nc1N.O=C(O)CC(=O)O [MAO4] | Good | – | – | –
Cc1ccc(S(=O)(=O)O)cc1.N=C(NCc1ccccc1)NC(=O)c1nc(Cl)c(N)nc1N [TOS2a] | – | – | – | physically unstable
